# Measured values taken from patent US20240408052A1, “COMPOSITION CONTAINING SESAMIN AND ERGOTHIONEINE OR SALT THEREOF” (SUNTORY HOLDINGS LIMITED, priority 2021, published 2024).
# Tested on: p16-INK4A (p16)
# Assay: p16 expression in H2O2-treated TIG-3 cells (cellular senescence marker, real-time PCR)
# Format: cell-based, human
# Description: TIG-3 cells (human lung fibroblasts) were used to measure the expression level of p16-INK4A (p16) in the cells. Eagle's minimum essential medium supplemented with 10% fetal bovine serum was used in each of Examples 1 and 2, Reference Example 1, and Comparative Examples 1 to 4. A H2O2 (200 μM)-supplemented medium used for H2O2 treatment was prepared by adding H2O2 to the medium described above. The H2O2 (200 μM)-supplemented medium is free of sesamin-class compounds and ergothioneine.
# In Examples 1 and 2, in order to investigate the action on cellular senescence, the cells were cultured in a medium containing sesamin-class compounds and ergothioneine and were then treated with the H2O2-supplemented medium. […]
# Specifically, TIG-3 cells at 4.0×10^4 cells/well were seeded onto 6-well plates and cultured at 37° C. with CO2 (5%) for 24 hours in a medium supplemented with a sesamin-episesamin mixture (SE) and ergothioneine at the respective concentrations shown in the following Table 1. […] The resulting pellets were dissolved in 20 μL DNase RNase free water (Invitrogen) and measured by NanoDrop. […] A master mix (15 μL) (Takara, TB Green® Premix Ex Taq™ II (Tli RNaseH Plus)) was mixed with the cDNA sample (5 μL), and p16 was measured with a Real-Time PCR system (Applied Biosystems, StepOnePlus-01). An average p16 expression level (n=6) was determined. […]
structure (smiles),measurement,setting,value
"C[N+](C)(C)[C@@H](Cc1c[nH]c(=S)[nH]1)C(=O)[O-] [ergothioneine, L-ergothioneine]",p16 expression level compared to the H2O2-treated group (Comparative Example 1),"FIG. 1, ergothioneine 0.1 μM, 200 μM H2O2 two hours, then six days culture, n=6",no significant change
same,p16 expression compared to the H2O2-treated group (Comparative Example 1),"FIG. 2, ergothioneine 10 μM, 200 μM H2O2, p<0.05",significantly suppressed
